{"source": "patent US12421211B2", "about": "“Heterocyclic compounds” (Hoffmann-La Roche Inc., priority 2021, dated 2025)", "note": "Where a name gives a salt, the structure may show the parent alone."}
{"test_system": "Acinetobacter baumannii ATCC17961", "experiment": "Antimicrobial susceptibility testing: 90% growth inhibitory concentration (IC90) determination", "type": "cell-based", "conditions": "90% growth inhibitory concentration, Acinetobacter baumannii ATCC17961, Iso-Sensitest broth, OD 600 nm over 16 h; formic acid; formate; read-out: ATCC 17961 IC90", "method": "(§1) Assay Procedures Antimicrobial Susceptibility Testing: 90% Growth Inhibitory Concentration (IC90) Determination\n(§2) The in vitro antimicrobial activity of the compounds was determined according to the following procedure:\n(§3) The assay used a 10-points Iso-Sensitest broth medium to measure quantitatively the in vitro activity of the compounds against Acinetobacter baumannii ATCC17961.\n(§4) Stock compounds in DMSO were serially twofold diluted (e.g. range from 50 to 0.097 μM final concentration) in 384 wells microtiter plates and inoculated with 49 μl the bacterial suspension in Iso-Sensitest medium to have a final cell concentration of ˜5×10^(5) CFU/ml in a final volume/well of 50 ul/well. Microtiter plates were incubated at 35±2° C.\n(§5) Bacterial cell growth was determined with the measurement of optical density at λ=600 nm each 20 minutes over a time course of 16h. Growth inhibition was calculated during the logarithmic growth of the bacterial cells with determination of the concentration inhibiting 50% (IC50) and 90% (IC90) of the growth.\n(§6) Table 1 provides the 90% growth inhibitory concentrations (IC90) in micromoles per liter of the compounds of present invention obtained against the strain Acinetobacter baumannii ATCC17961.", "units": {"IC90": "nM"}}
{"molecule": "COCCn1ncc(-c2ccc(-c3cnc(C(=O)Nc4ccc(C(=O)N5CCN(C(=O)C6CC[N+](CC(=O)O)(CC7CNC7)CC6)CC5)c(Cl)c4)n3C)c(F)c2F)c1C", "note": "(centres unmarked) [Example B29, 2-[1-(azetidin-3-ylmethyl)-4-[4-[2-chloro-4-[[5-[2,3-difluoro-4-[1-(2-methoxyethyl)-5-methyl-pyrazol-4-yl]phenyl]-1-methyl-imidazole-2-carbonyl]amino]benzoyl]piperazine-1-carbonyl]piperidin-1-ium-1-yl]acetic acid; formic acid; formate]", "IC90": 340}
{"molecule": "COCCn1ncc(-c2ccc(-c3cnc(C(=O)Nc4ccc(C(=O)N5CCN(C(=O)C6CC[N+](CC(=O)O)(CC7CNC7)CC6)CC5)c(Cl)c4)n3C)c(F)c2F)c1C", "note": "(centres unmarked) [Example B30, 2-[1-(azetidin-3-ylmethyl)-4-[4-[2-chloro-4-[[5-[2,3-difluoro-4-[1-(2-methoxyethyl)-5-methyl-pyrazol-4-yl]phenyl]-1-methyl-imidazole-2-carbonyl]amino]benzoyl]piperazine-1-carbonyl]piperidin-1-ium-1-yl]acetic acid; formic acid; formate]", "IC90": 190}
{"test_system": "Acinetobacter baumannii ATCC17961", "experiment": "Antimicrobial susceptibility testing: 90% growth inhibitory concentration (IC90) determination", "type": "cell-based", "conditions": "Acinetobacter baumannii, ATCC17961, 16 h, 90% growth inhibitory concentration, Acinetobacter baumannii ATCC17961, Iso-Sensitest broth, OD 600 nm over 16 h; read-out: ATCC 17961 IC90", "method": "as §1, §2, §3, §4, §5, §6", "units": {"IC90": "nM"}}
{"molecule": "COCCn1ncc(-c2ccc(-c3cnc(C(=O)Nc4ccc(C(=O)N5CCN(C(=O)C6CC[N+](CC(=O)O)(CC7CNC7)CC6)CC5)c(Cl)c4)n3C)c(F)c2Cl)c1C", "note": "(centres unmarked) [Example B28, 2-[1-(azetidin-3-ylmethyl)-4-[4-[2-chloro-4-[[5-[3-chloro-2-fluoro-4-[1-(2-methoxyethyl)-5-methyl-pyrazol-4-yl]phenyl]-1-methyl-imidazole-2-carbonyl]amino]benzoyl]piperazine-1-carbonyl]piperidin-1-ium-1-yl]acetic acid; formate]", "IC90": 230}
{"molecule": "COCCn1ncc(-c2ccc(-c3cnc(C(=O)Nc4ccc(C(=O)N5CCN(C(=O)C6CC[N+](CC(=O)O)(CC7CNC7)CC6)CC5)c(Cl)c4)n3C)c(Cl)c2F)c1C", "note": "(centres unmarked) [Example B37, 2-[1-(azetidin-3-ylmethyl)-4-[4-[2-chloro-4-[[5-[2-chloro-3-fluoro-4-[1-(2-methoxyethyl)-5-methyl-pyrazol-4-yl]phenyl]-1-methyl-imidazole-2-carbonyl]amino]benzoyl]piperazine-1-carbonyl]piperidin-1-ium-1-yl]acetic acid; formate]", "IC90": 200}
{"molecule": "COCCn1ncc(-c2ccc(-c3cnc(C(=O)Nc4ccc(C(=O)N5CCN(C(=O)N6CC[N+](CC(=O)O)(CC7CNC7)CC6)CC5)c(Cl)c4)n3C)c(F)c2F)c1C", "note": "[Example B38, 2-[1-(azetidin-3-ylmethyl)-4-[4-[2-chloro-4-[[5-[2,3-difluoro-4-[1-(2-methoxyethyl)-5-methyl-pyrazol-4-yl]phenyl]-1-methyl-imidazole-2-carbonyl]amino]benzoyl]piperazine-1-carbonyl]piperazin-1-ium-1-yl]acetic acid; formate]", "IC90": 300}
{"molecule": "COCCn1ncc(-c2ccc(-c3cnc(C(=O)Nc4ccc(C(=O)N5CCN(C(=O)C6CC[N+](CC(=O)O)(CC7CNC7)CC6)CC5)c(Cl)c4)n3C)c(C)c2F)c1C", "note": "(centres unmarked) [Example B39, 2-[1-(azetidin-3-ylmethyl)-4-[4-[2-chloro-4-[[5-[3-fluoro-4-[1-(2-methoxyethyl)-5-methyl-pyrazol-4-yl]-2-methyl-phenyl]-1-methyl-imidazole-2-carbonyl]amino]benzoyl]piperazine-1-carbonyl]piperidin-1-ium-1-yl]acetic acid; formate]", "IC90": 250}
{"molecule": "COCCn1ncc(-c2cc(C)c(-c3cnc(C(=O)Nc4ccc(C(=O)N5CCN(C(=O)C6CC[N+](CC(=O)O)(CC7CNC7)CC6)CC5)c(Cl)c4)n3C)cc2Cl)c1C", "note": "(centres unmarked) [Example B40, 2-[1-(azetidin-3-ylmethyl)-4-[4-[2-chloro-4-[[5-[5-chloro-4-[1-(2-methoxyethyl)-5-methyl-pyrazol-4-yl]-2-methyl-phenyl]-1-methyl-imidazole-2-carbonyl]amino]benzoyl]piperazine-1-carbonyl]piperidin-1-ium-1-yl]acetic acid; formate]", "IC90": 1800}
{"molecule": "COCCn1ncc(-c2ccc(-c3cnc(C(=O)Nc4ccc(C(=O)N5CCN(C(=O)C[N+]6(C)CCC(N)C6)CC5)c(Cl)c4)n3C)c(F)c2F)c1C", "note": "(centres unmarked) [Example C2, N-[4-[4-[2-(3-amino-1-methyl-pyrrolidin-1-ium-1-yl)acetyl]piperazine-1-carbonyl]-3-chloro-phenyl]-5-[2,3-difluoro-4-[1-(2-methoxyethyl)-5-methyl-pyrazol-4-yl]phenyl]-1-methyl-imidazole-2-carboxamide; formic acid; formate]", "IC90": 41}
{"molecule": "COCCn1cc(-c2ccc(-c3cnc(C(=O)Nc4ccc(C(=O)N5CCN(C(=O)C[N+]6(C)CCC(N)C6)CC5)c(Cl)c4)n3C)c(F)c2F)c(C)n1", "note": "(centres unmarked) [Example C3, N-[4-[4-[2-(3-amino-1-methyl-pyrrolidin-1-ium-1-yl)acetyl]piperazine-1-carbonyl]-3-chloro-phenyl]-5-[2,3-difluoro-4-[1-(2-methoxyethyl)-3-methyl-pyrazol-4-yl]phenyl]-1-methyl-imidazole-2-carboxamide; formic acid; formate]", "IC90": 100}
{"molecule": "COCCn1cc(-c2ccc(-c3cnc(C(=O)Nc4ccc(C(=O)N5CCN(C(=O)C[N+]6(C)C[C@H](OC)[C@@H](N)C6)CC5)c(Cl)c4)n3C)c(F)c2F)c(C)n1", "note": "(stereo partly drawn) [Example C5, N-[4-[4-[2-[(3S,4S)-3-amino-4-methoxy-1-methyl-pyrrolidin-1-ium-1-yl]acetyl]piperazine-1-carbonyl]-3-chloro-phenyl]-5-[2,3-difluoro-4-[1-(2-methoxyethyl)-3-methyl-pyrazol-4-yl]phenyl]-1-methyl-imidazole-2-carboxamide; formic acid; formate]", "IC90": 240}
{"molecule": "COCCn1cc(-c2ccc(-c3cnc(C(=O)Nc4ccc(C(=O)N5CCN(C(=O)C[N+]6(C)CCC(O)(CN)C6)CC5)c(Cl)c4)n3C)c(F)c2F)c(C)n1", "note": "(centres unmarked) [Example C6, N-[4-[4-[2-[3-(aminomethyl)-3-hydroxy-1-methyl-pyrrolidin-1-ium-1-yl]acetyl]piperazine-1-carbonyl]-3-chloro-phenyl]-5-[2,3-difluoro-4-[1-(2-methoxyethyl)-3-methyl-pyrazol-4-yl]phenyl]-1-methyl-imidazole-2-carboxamide; formic acid; formate]", "IC90": 140}
{"test_system": "Acinetobacter baumannii ATCC17961", "experiment": "Antimicrobial susceptibility testing: 90% growth inhibitory concentration (IC90) determination", "type": "cell-based", "conditions": "Acinetobacter baumannii, ATCC17961, 16 h, read-out: ATCC 17961 IC90", "method": "as §1, §2, §3, §4, §5, §6", "units": {"IC90": "nM"}}
{"molecule": "COCCn1ncc(-c2ccc(-c3cnc(C(=O)Nc4ccc(C(=O)N5CCN(C(=O)C6CCN(CC7C[N+](C)(C)C7)CC6)CC5)c(Cl)c4)n3C)c(F)c2F)c1C", "note": "[Example B31, N-[3-chloro-4-[4-[1-[(1,1-dimethylazetidin-1-ium-3-yl)methyl]piperidine-4-carbonyl]piperazine-1-carbonyl]phenyl]-5-[2,3-difluoro-4-[1-(2-methoxyethyl)-5-methyl-pyrazol-4-yl]phenyl]-1-methyl-imidazole-2-carboxamide]", "IC90": 71}
{"molecule": "COCCn1ncc(-c2ccc(-c3cnc(C(=O)Nc4ccc(C(=O)N5CCN(C(=O)C6CC[N+](C)(CC(F)F)CC6)CC5)c(Cl)c4)n3C)c(F)c2F)c1C", "note": "(centres unmarked) [Example B32, N-[3-chloro-4-[4-[1-(2,2-difluoroethyl)-1-methyl-piperidin-1-ium-4-carbonyl]piperazine-1-carbonyl]phenyl]-5-[2,3-difluoro-4-[1-(2-methoxyethyl)-5-methyl-pyrazol-4-yl]phenyl]-1-methyl-imidazole-2-carboxamide; 2,2,2-trifluoroacetate]", "IC90": 58}
{"molecule": "COCCn1ncc(-c2ccc(-c3cnc(C(=O)Nc4ccc(C(=O)N5CCN(C(=O)C6CCN(CCS(N)(=O)=O)CC6)CC5)c(Cl)c4)n3C)c(F)c2F)c1C", "note": "[Example B33, N-[3-chloro-4-[4-[1-(2-sulfamoylethyl)piperidine-4-carbonyl]piperazine-1-carbonyl]phenyl]-5-[2,3-difluoro-4-[1-(2-methoxyethyl)-5-methyl-pyrazol-4-yl]phenyl]-1-methyl-imidazole-2-carboxamide]", "IC90": 820}
{"molecule": "Cc1n[nH]cc1-c1ccc(-c2cnc(C(=O)Nc3ccc(C(=O)N4CCN(C(=O)C5CCC[N+]5(C)CCO)CC4)c(Cl)c3)n2C)c(F)c1F", "note": "(centres unmarked) [Example B35, N-[3-chloro-4-[4-[1-(2-hydroxyethyl)-1-methyl-pyrrolidin-1-ium-2-carbonyl]piperazine-1-carbonyl]phenyl]-5-[2,3-difluoro-4-(3-methyl-1H-pyrazol-4-yl)phenyl]-1-methyl-imidazole-2-carboxamide; 2,2,2-trifluoroacetate]", "IC90": 130}
{"molecule": "Cc1n[nH]cc1-c1ccc(-c2cnc(C(=O)Nc3ccc(C(=O)N4CCN(C(=O)[C@@H]5C[C@@H](O)C[N+]5(C)CCO)CC4)c(Cl)c3)n2C)c(F)c1F", "note": "(stereo partly drawn) [Example B36, N-[3-chloro-4-[4-[(2S,4R)-4-hydroxy-1-(2-hydroxyethyl)-1-methyl-pyrrolidin-1-ium-2-carbonyl]piperazine-1-carbonyl]phenyl]-5-[2,3-difluoro-4-(3-methyl-1H-pyrazol-4-yl)phenyl]-1-methyl-imidazole-2-carboxamide; 2,2,2-trifluoroacetate]", "IC90": 110}
{"molecule": "COCCn1ncc(-c2ccc(-c3cnc(C(=O)Nc4ccc(C(=O)N5CCN(C(=O)C[N+]6(C)CCC(O)C6)CC5)c(Cl)c4)n3C)c(F)c2F)c1C", "note": "(centres unmarked) [Example C1, N-[3-chloro-4-[4-[2-(3-hydroxy-1-methyl-pyrrolidin-1-ium-1-yl)acetyl]piperazine-1-carbonyl]phenyl]-5-[2,3-difluoro-4-[1-(2-methoxyethyl)-5-methyl-pyrazol-4-yl]phenyl]-1-methyl-imidazole-2-carboxamide; formate]", "IC90": 45}
